Experimental data: patent US7368578B2, “Five-membered heterocyclic compounds” (Takeda Pharmaceutical Company Limited, priority 2002, dated 2008)

Compound	melting point
CCc1nc(/C=C/c2cn(-c3ccccc3)nc2OCc2ccc(OCc3nc(-c4cccc(NS(C)(=O)=O)c4)oc3C)c(OC)c2)cs1 [Example 388, N-{3-[4-({4-[({4-[(E)-2-(2-ethyl-1,3-thiazol-4-yl)ethenyl]-1-phenyl-1H-pyrazol-3-yl}oxy)methyl]-2-methoxyphenoxy}methyl)-5-methyl-1,3-oxazol-2-yl]phenyl}methanesulfonamide]	113 to 115 °C
CCOC(=O)/C=C/c1cn(-c2ccccc2)nc1OCc1ccc(OCc2nc(-c3ccccc3)oc2C)cc1 [Example 82, ethyl (2E)-3-[3-({4-[(2-phenyl-5-methyl-1,3-oxazol-4-yl)methoxy]benzyl}oxy)-1-phenyl-1H-pyrazol-4-yl]-2-propenoate]	154 to 155 °C
COc1cc(COc2nc(-c3ccccc3)ncc2C=O)ccc1OCc1nc(-c2ccco2)oc1C [Example 280, 4-[(4-{[2-(2-furyl)-5-methyl-1,3-oxazol-4-yl]methoxy}-3-methoxybenzyl)oxy]-2-phenylpyrimidine-5-carbaldehyde]	143 to 144 °C
CCn1cc(C=O)c(OCc2ccc(OCc3nc(-c4ccco4)oc3C)c(OC)c2)n1 [Example 178, 1-ethyl-3-[(4-{[2-(2-furyl)-5-methyl-1,3-oxazol-4-yl]methoxy}-3-methoxybenzyl)oxy]-1H-pyrazole-4-carbaldehyde]	103 to 104 °C
CCOC(=O)c1ccc(-c2nc(COc3ccc(COc4nn(-c5ccccc5)cc4/C=C/c4csc(CC)n4)cc3OC)c(C)o2)o1 [Example 244 (E form), ethyl 5-[4-({4-[({4-[(E)-2-(2-ethyl-1,3-thiazol-4-yl)ethenyl]-1-phenyl-1H-pyrazol-3-yl}oxy)methyl]-2-methoxyphenoxy}methyl)-5-methyl-1,3-oxazol-2-yl]-2-furancarboxylate]	150 to 151 °C
CCc1nc(/C=C/c2cn(-c3ccccc3)nc2OCc2cc(OCc3nc(-c4ccc(CC(=O)O)cc4)oc3C)no2)cs1 [Example 390, (4-{4-[({5-[({4-[(E)-2-(2-ethyl-1,3-thiazol-4-yl)ethenyl]-1-phenyl-1H-pyrazol-3-yl}oxy)methyl]isoxazol-3-yl}oxy)methyl]-5-methyl-1,3-oxazol-2-yl}phenyl)acetic acid]	156 to 158 °C
CCOC(=O)c1cn(Cc2ccccc2)nc1OCc1ccc(OCc2nc(-c3ccco3)oc2C)c(OCc2ccccc2)c1 [Example 48, ethyl 1-benzyl-3-[(3-benzyloxy-4-{[2-(2-furyl)-5-methyl-1,3-oxazol-4-yl]methoxy}benzyl)oxy]-1H-pyrazole-4-carboxylate]	127 to 128 °C
COc1cc(COc2nn(-c3ccccc3)cc2C=O)ccc1OCc1nc(-c2ccccc2)sc1C [Example 213, 3-({3-methoxy-4-[(5-methyl-2-phenyl-1,3-thiazol-4-yl)methoxy]benzyl}oxy)-1-phenyl-1H-pyrazole-4-carbaldehyde]	164 to 165 °C
COc1cc(COc2nn(-c3ccc(C(F)(F)F)cc3)cc2/C=C/CO)ccc1OCc1nc(-c2ccccc2)oc1C [Example 296, (2E)-3-{3-({3-methoxy-4-[(5-methyl-2-phenyl-1,3-oxazol-4-yl)methoxy]benzyl}oxy)-1-[4-(trifluoromethyl)phenyl]-1H-pyrazol-4-yl}-2-propen-1-ol]	118 to 119 °C
COc1cc(COc2nn(-c3ccccc3)cc2/C=C/C(=O)N2CCOCC2)ccc1OCc1nc(-c2ccco2)oc1C [Example 98, 4-((2E)-3-{3-[(4-{[2-(2-furyl)-5-methyl-1,3-oxazol-4-yl]methoxy}-3-methoxybenzyl)oxy]-1-phenyl-1H-pyrazol-4-yl}-2-propenoyl)morpholine]	180 to 181 °C
CNCc1cn(-c2ccccc2)nc1OCc1ccc(OCc2nc(-c3ccco3)oc2C)c(OC)c1 [Example 102, N-({3-[(4-{[2-(2-furyl)-5-methyl-1,3-oxazol-4-yl]methoxy}-3-methoxybenzyl)oxy]-1-phenyl-1H-pyrazol-4-yl}methyl)-N-methylamine]	103 to 104 °C
